Measurements: PubChem BioAssay AID256 (DTP/NCI, 2004)
Values joined by “and” are separate entries in the source; they are usually repeats but may differ in a detail not shown here. Equal entries are not always repeated. Toxic doses and inconclusive results are not listed.

Test system: CD2F1 mice, L1210 leukemia ip, survival T/C
Assay: NCI In Vivo Anticancer Drug Screen. Data for tumor model L1210 Leukemia (intraperitoneal) in CD2F1 (CDF1) mice
Conditions: higher = longer survival
Summary of the method: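 Tumor-bearing mice (transplanted tumor) were split into treated and vehicle control groups, and the measured endpoint of each treated group was divided by that of its vehicle controls.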

[1] = endpoint: mean survival time, dose: 50.0 mg/kg/injection, schedule: Q01DX009 (ip), vehicle: saline with Tween-80
[2] = endpoint: mean survival time, dose: 100.0 mg/kg/injection, schedule: Q01DX009 (ip), vehicle: saline with Tween-80
[3] = endpoint: mean survival time, dose: 200.0 mg/kg/injection, schedule: Q01DX009 (ip), vehicle: saline with Tween-80
[4] = endpoint: mean survival time, dose: 100.0 mg/kg/injection, schedule: Q04DX002 (ip), vehicle: saline with Tween-80
[5] = endpoint: mean survival time, dose: 200.0 mg/kg/injection, schedule: Q04DX002 (ip), vehicle: saline with Tween-80
[6] = endpoint: mean survival time, dose: 12.5 mg/kg/injection, schedule: Q01DX009 (ip), vehicle: saline with Tween-80
[7] = endpoint: mean survival time, dose: 25.0 mg/kg/injection, schedule: Q01DX009 (ip), vehicle: saline with Tween-80

SMILES: O=c1[nH]c2c(ncn2C2OC3COP(=O)(O)OC3C2O)c2nccn12 (stereo unspecified)
- T/C (endpoint: mean survival time, dose: 12.5 mg/kg/injection, schedule: Q01DX005 (ip), vehicle: distilled water + Tween-80): 97 % of control
- T/C (endpoint: mean survival time, dose: 25.0 mg/kg/injection, schedule: Q01DX005 (ip), vehicle: distilled water + Tween-80): 97 % of control
- T/C (endpoint: mean survival time, dose: 50.0 mg/kg/injection, schedule: Q01DX005 (ip), vehicle: distilled water + Tween-80): 97 % of control
- T/C (endpoint: mean survival time, dose: 100.0 mg/kg/injection, schedule: Q01DX005 (ip), vehicle: distilled water + Tween-80): 100 % of control

SMILES: CCN(CC)C1=C(C)S(=O)(=O)C1c1ccc(C)cc1 (stereo unspecified)
- T/C [1]: 102 % of control
- T/C (endpoint: mean survival time, dose: 100.0 mg/kg/injection, schedule: Q01DX001 (ip), vehicle: saline): 97 % of control
- T/C [2]: 98 % of control
- T/C (endpoint: mean survival time, dose: 100.0 mg/kg/injection, schedule: Q04DX003 (ip), vehicle: saline): 103 % of control
- T/C (endpoint: mean survival time, dose: 200.0 mg/kg/injection, schedule: Q01DX001 (ip), vehicle: saline): 97 % of control
- T/C [3]: 98 % of control
- T/C (endpoint: mean survival time, dose: 200.0 mg/kg/injection, schedule: Q04DX003 (ip), vehicle: saline): 109 % of control
- T/C (endpoint: mean survival time, dose: 400.0 mg/kg/injection, schedule: Q01DX001 (ip), vehicle: saline): 97 % of control
- T/C (endpoint: mean survival time, dose: 400.0 mg/kg/injection, schedule: Q04DX003 (ip), vehicle: saline): 100 % of control

SMILES: CC1SC(=Nc2ccc(S(N)(=O)=O)cc2)NC1=O (stereo unspecified)
- T/C (endpoint: mean survival time, dose: 50.0 mg/kg/injection, schedule: Q04DX002 (ip), vehicle: saline with Tween-80): 105 % of control
- T/C [4]: 105 % of control
- T/C (endpoint: mean survival time, dose: 200.0 mg/kg/injection, schedule: Q01DX001 (ip), vehicle: saline with Tween-80): 89 % of control
- T/C [5]: 102 % of control

SMILES: O=NCC1(Cl)CC2C=CC1C2 (stereo unspecified)
- T/C (endpoint: mean survival time, dose: 6.25 mg/kg/injection, schedule: Q01DX009 (ip), vehicle: saline with Tween-80): 97 % of control
- T/C [6]: 98 % of control
- T/C [7]: 98 % of control

SMILES: COc1cc(NC(C)CCCN)c2ncccc2c1 (stereo unspecified)
- T/C (endpoint: mean survival time, dose: 12.5 mg/kg/injection, schedule: Q01DX009 (ip), vehicle: saline sonified): 102 % of control
- T/C (endpoint: mean survival time, dose: 12.5 mg/kg/injection, schedule: Q04DX003 (ip), vehicle: saline with Tween-80): 104 % of control
- T/C (endpoint: mean survival time, dose: 25.0 mg/kg/injection, schedule: Q01DX009 (ip), vehicle: saline sonified): 97 % of control
- T/C (endpoint: mean survival time, dose: 25.0 mg/kg/injection, schedule: Q04DX003 (ip), vehicle: saline with Tween-80): 93 % of control
- T/C (endpoint: mean survival time, dose: 50.0 mg/kg/injection, schedule: Q01DX009 (ip), vehicle: saline sonified): 102 % of control
- T/C (endpoint: mean survival time, dose: 50.0 mg/kg/injection, schedule: Q04DX003 (ip), vehicle: saline with Tween-80): 101 % of control

SMILES: O.O=S(=O)([O-])O.O=[N+]([O-])O.[Co+3].[NH2-].[NH2-].[NH2-].[NH2-]
- T/C [4]: 94 % of control
- T/C [5]: 97 % of control

SMILES: O=C1C(N2CC2)=C(N2CCCC(O)C2)C(=O)C(N2CC2)=C1N1CCCC(O)C1 (stereo unspecified)
- T/C (endpoint: mean survival time, dose: 2.0 mg/kg/injection, schedule: Q01DX009 (ip), vehicle: saline): 162 % of control and 173 % of control

SMILES: S=c1[nH]cc2cnccn12
- T/C [6]: 92 % of control and 103 % of control
- T/C [7]: 97 % of control and 100 % of control
- T/C [1]: 95 % of control and 105 % of control
- T/C [2]: 93 % of control and 100 % of control
- T/C [3]: 104 % of control
- T/C (endpoint: mean survival time, dose: 400.0 mg/kg/injection, schedule: Q01DX009 (ip), vehicle: saline with Tween-80): 97 % of control

SMILES: CC(C)=CBr
- T/C (endpoint: mean survival time, dose: 100.0 mg/kg/injection, schedule: Q04DX003 (ip), vehicle: acetone): 103 % of control
- T/C (endpoint: mean survival time, dose: 200.0 mg/kg/injection, schedule: Q04DX003 (ip), vehicle: acetone): 94 % of control

SMILES: N=C(N)SCc1cccc2c(=O)cc(-c3ccccc3)oc12
- T/C [7]: 95 % of control
- T/C [1]: 96 % of control
- T/C [2]: 101 % of control
- T/C [3]: 104 % of control
- T/C (endpoint: median survival time, dose: 25.0 mg/kg/injection, schedule: Q01DX009 (ip), vehicle: saline): 113 % of control
- T/C (endpoint: median survival time, dose: 50.0 mg/kg/injection, schedule: Q01DX009 (ip), vehicle: saline): 113 % of control
- T/C (endpoint: median survival time, dose: 100.0 mg/kg/injection, schedule: Q01DX009 (ip), vehicle: saline): 114 % of control
- T/C (endpoint: median survival time, dose: 200.0 mg/kg/injection, schedule: Q01DX009 (ip), vehicle: saline): 113 % of control
- T/C (endpoint: median survival time, dose: 400.0 mg/kg/injection, schedule: Q01DX009 (ip), vehicle: saline): 97 % of control
